Test results as given in patent publication US20100223737A1, “ORGANIC CATALYST WITH ENHANCED ENZYME COMPATIBLITY” (priority 2009, published 2010).

Key:
Assay type in all cases: biochemical
[1] = test system: Duramyl; experiment: Organic Catalyst/Enzyme Compatibility Test (alpha amylase activity assay), Duramyl; details: (Ac/Ab)x100; [Peracetic Acid]=5.0 ppm; [organic catalyst]=0.5 ppm; 40° C.; sample at 7 minutes 45 seconds
[2] = test system: Termamyl, Duramyl and Natalase; experiment: Organic Catalyst/Enzyme Compatibility Test, average of the three enzymes; details: ECV=(ECVter+ECVdur+ECVnat)/3; [Peracetic Acid]=5.0 ppm; [organic catalyst]=0.5 ppm
[3] = test system: Natalase; experiment: Organic Catalyst/Enzyme Compatibility Test (alpha amylase activity assay), Natalase; details: (Ac/Ab)x100; [Peracetic Acid]=5.0 ppm; [organic catalyst]=0.5 ppm; 40° C.; sample at 7 minutes 45 seconds

Enzyme Compatibility Values ECVdur [1]	Enzyme Compatibility Values ECV [2]	Enzyme Compatibility Values ECVnat [3]	Substance
101	99	99	Sulfuric acid mono-[2-(3,4-dihydro-isoquinolin-2-yl)-1-(2-propylheptyloxymethyl)-ethyl]ester, internal salt [Entry 3]
101	101	102	Sulfuric acid mono-[2-(3,4-dihydro-isoquinolin-2-yl)-1-(2-butyloctyloxymethyl)-ethyl]ester, internal salt [Entry 4]
